{"source": "paper PMC10020958", "about": "“2-(4-Fluorophenyl)-1H-benzo[d]imidazole as a Promising Template for the Development of Metabolically Robust, α1β2γ2GABA-A Receptor-Positive Allosteric Modulators” (ACS Chemical Neuroscience, 2023)", "key": {"[1]": {"target": "T1, α1β2γ2-GABA-A receptors stably expressed in HEK293 cells (Homo sapiens, UniProt P14867+P18507)", "T1 construct": "expressed in transfected cells", "T1 sequence (P14867 28-456)": "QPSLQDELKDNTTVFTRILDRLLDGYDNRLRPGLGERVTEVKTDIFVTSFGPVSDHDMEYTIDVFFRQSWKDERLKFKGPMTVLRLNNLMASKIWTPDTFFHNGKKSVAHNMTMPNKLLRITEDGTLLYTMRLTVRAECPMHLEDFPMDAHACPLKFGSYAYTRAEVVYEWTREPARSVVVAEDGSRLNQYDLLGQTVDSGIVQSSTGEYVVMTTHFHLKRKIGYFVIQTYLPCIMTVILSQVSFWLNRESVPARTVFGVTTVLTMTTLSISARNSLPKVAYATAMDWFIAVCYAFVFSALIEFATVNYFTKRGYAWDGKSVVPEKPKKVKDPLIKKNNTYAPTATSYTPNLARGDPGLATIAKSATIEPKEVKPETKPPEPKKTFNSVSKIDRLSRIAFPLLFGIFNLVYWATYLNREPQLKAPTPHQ", "T1 sequence (P47870 25-512 partner limits assumed)": "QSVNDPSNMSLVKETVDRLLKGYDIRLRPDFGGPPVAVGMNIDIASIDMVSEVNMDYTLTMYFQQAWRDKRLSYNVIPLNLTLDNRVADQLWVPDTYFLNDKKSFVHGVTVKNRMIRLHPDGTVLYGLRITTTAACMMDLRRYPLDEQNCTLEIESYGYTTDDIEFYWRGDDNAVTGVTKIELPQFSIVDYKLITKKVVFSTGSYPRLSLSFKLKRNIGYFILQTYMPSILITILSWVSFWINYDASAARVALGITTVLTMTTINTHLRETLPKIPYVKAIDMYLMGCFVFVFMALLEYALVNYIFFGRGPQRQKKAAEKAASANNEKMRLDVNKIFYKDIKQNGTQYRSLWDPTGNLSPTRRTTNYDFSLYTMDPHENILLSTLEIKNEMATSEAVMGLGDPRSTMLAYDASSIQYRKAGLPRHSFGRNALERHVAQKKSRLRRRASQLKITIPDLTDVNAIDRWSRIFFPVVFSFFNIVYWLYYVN", "T1 sequence (P18507 40-475)": "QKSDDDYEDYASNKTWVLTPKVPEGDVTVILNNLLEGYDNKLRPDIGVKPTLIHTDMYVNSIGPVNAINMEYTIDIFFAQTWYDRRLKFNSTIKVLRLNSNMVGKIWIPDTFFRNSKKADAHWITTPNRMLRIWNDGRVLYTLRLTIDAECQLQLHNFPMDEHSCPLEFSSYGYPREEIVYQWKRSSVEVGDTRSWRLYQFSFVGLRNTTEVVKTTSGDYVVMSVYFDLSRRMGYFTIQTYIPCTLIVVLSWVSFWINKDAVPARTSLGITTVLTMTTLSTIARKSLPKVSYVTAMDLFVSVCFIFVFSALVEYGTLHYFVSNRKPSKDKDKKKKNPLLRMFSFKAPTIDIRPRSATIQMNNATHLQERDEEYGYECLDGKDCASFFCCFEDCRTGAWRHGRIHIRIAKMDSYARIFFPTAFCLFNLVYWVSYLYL", "assay": "Electrophysiological studies, automated patch clamp (QPatch16X), positive allosteric modulation of GABA-induced Cl- currents", "format": "cell-based", "conditions": "compound 1 μM co-applied with 10 μM GABA; GABA alone = 100%; mean ± SEM", "procedure": "Given that ligands binding within the α1/γ2 interface act as PAMs, we selected the most promising 1H-benzo[d]imidazoles (9, 15, 16, 23, and 29) for electrophysiological studies using automated patch clamp recordings (QPatch16X, Sophion). We expected that 1H-benzo[d]imidazoles would potentiate GABA-induced Cl^– currents rather than inducing ion passage alone.\nElectrophysiology studies were performed using the QPatch16X automatic patch clamp platform (Sophion Biosciences) and HEK293 cells, stably expressing the α1β2γ2 subunits of the human GABA-A receptor. Prior to the assay recordings, the cells were transferred from the culture flask through a TrypLE Express solution (LifeTechnologies) and resuspended in serum-free media. The cells were placed in the lidless microtube, located onboard the automated electrophysiology instrument. The cells were then automatically relocated to a built-in centrifuge, spun down, and washed in Ringer’s extracellular solution. The cells were transferred to the pipetting wells of a single-use 16-channel planar patch chip plate (QPlate 16X), and gigaseals were formed upon implementation of a combined suction/voltage protocol. Subsequent suction induced whole-cell configuration. The chloride currents passed via the GABA-A receptor were recorded for 7 s after single addition of a tested molecule. Through whole-cell recording, the holding potential was set to −90 mV. The assay was performed at room temperature. The extracellular solution was composed of the following ingredients: consisted of 2 mM […], 145 mM NaCl, 10 mM HEPES, CaCl2, 1 mM MgCl2, 10 mM glucose (pH 7.4, 300 mOsm), and intracellular solution contained 140 mM CsF, 1 mM EGTA, 5 mM CsOH, 10 mM HEPES, and 20 mMNaCl (pH 7.2, 320 mOsm). The screening assays were established in the instrument software by sequential application of 10 μM GABA (reference agonist AG1), 1 μM examined molecule compounds, and compounds co-administered with 10 μM GABA (T2); second addition of 10 μM GABA (AG2); 10 μM bicuculline (reference antagonist) along with 10 μM GABA (ATG). The intermission among the addition of particular molecules was 60 s. In a typical procedure, 5 μL of ligand was added to the cells, followed by 3 s of washout with an extracellular solution (two times […]). For the allosteric modulator/antagonist mode, the cells were preincubated with the tested compound alone for 50 s, followed by the addition of the reference agonist. The data obtained were processed using QPatch Assay Software (v5.0, Sophion Biosciences) and are represented as the mean of at least three independent experiments performed on separate cells. The validation criteria for a single test were current amplitude evoked by adding GABA greater than 500 pA and a change between cells’ response to GABA applications (AG1 and AG2) not greater than 25%. The relative compound efficiency was analyzed as the baseline-corrected ratio of maximal current amplitudes induced by the addition of tested compounds and reference agonist (T1-ATG/AG1-ATG or T2-ATG/AG1-ATG). The obtained raw current recordings were normalized and represented as % of the current amplitude induced by a reference agonist (GABA = 100%) using the QPatch Assay Software (v5.0, Sophion Biosciences).[24]"}, "[2]": {"target": "GABA-A receptor (benzodiazepine site, α1/γ2 interface)", "assay": "Radioligand binding assay for the GABA-A receptor ([3H]-flunitrazepam displacement, rat brain homogenate)", "conditions": "pKi = -log Ki, n.a. = no affinity"}, "[3]": {"assay": "Thermodynamic solubility in phosphate buffer pH = 7.4", "format": "physicochemical", "conditions": "phosphate buffer (Dulbecco's phosphate-buffered saline), aqueous buffer, thermodynamic from solid, phosphate buffer pH = 7.4, 20 °C", "experimental": "Quantitative HPLC analyses were performed on a Waters Alliance e2695 Separations Module (Waters, Milford, CT, USA) with a detector 2998 Photodiode Array (PDA) detector (Waters, Milford, CT, USA) and the Chromolithe SpeedROD RP-18e 50–4.6 mm column (Merck, KGaA, Darmstadt, Germany). The column was kept at 30 °C. The conditions applied are as follows: eluent A (water/0.1% formic acid), eluent B (MeCN/0.1% formic acid), a flow rate of ,5 mL/min, a gradient of 0–100% B over 3 min, and an injection volume of 10 μL. Each sample was injected in triplicate. […] Standard solutions of the tested compounds and the reference compound were prepared in methanol at a concentration of 1 mg/mL. […] Next, 2 mg of the compound tested was dissolved in 1 mL of Dulbecco’s phosphate-buffered saline (DPBS), and the mixture was constantly agitated at 20 °C for 24 h in a thermoshaker. After that time, the mixtures were filtered through a cellulose acetate syringe filter (pore size 0.22 μm) and transferred to a chromatographic vial and analyzed using HPLC. For quantification, areas under the peaks of the investigated compounds on DAD chromatograms were used. Solubility was determined using the calibration curves."}, "[4]": {"system": "HepG2 human hepatoma cells", "assay": "Hepatotoxicity assay: mitochondrial membrane potential (JC-1 probe)", "format": "cell-based", "conditions": "100 μM, 24 h treatment", "procedure": "(§1) Given that drug-induced liver injury (DILI) is the leading cause of the termination of potential drug candidates,[21],[22] two of the main molecules 9 and 23 were further assayed in HepG2 human hepatoma cells to assess their potential risk of toxicity.[23] The hepatotoxicity of the compounds tested was evaluated using two methods: cell viability (Figure 8A,B) and mitochondrial membrane potential assay (Figure 8C).\n(§2) Figure 8 Hepatotoxicity assays for selected lead molecules. Cell viability (A) was measured using the PrestoBlue reagent, cell membrane damage (B) was assessed using the ToxiLight bioassay, and mitochondrial membrane potential (C) was assessed using a JC-1 probe. Assays performed after 24 h treatment with tested compounds and a reference alpidem. Results are presented as mean % of untreated controls ± S.D. (n = 3). Differences among groups were evaluated by one-way ANOVA followed by post-hoc analysis (Dunnett’s multiple comparison tests) and were considered statistically significant if p < 0.05 (****p < 0.0001, ***p < 0.001, **p < 0.01, and *p < 0.05). […]\n(§3) Cell viability was measured using the PrestoBlue reagent (Thermo Fisher). […] Metabolically active cells are capable of reducing the PrestoBlue reagent, with the colorimetric changes used as an indicator to quantify the viability of cells in culture. This change can be determined by measuring the fluorescence. […] After 30 min of incubation at 37 °C, the fluorescence intensity (EX 530; EM 580 nm) was measured by using a multifunction plate reader (POLARstar Omega, BMG Labtech, Germany). Viability values were calculated as a percentage of live cells with respect to the control sample. Cell membrane damage was measured using the bioluminescent ToxiLight bioassay (Lonza). It quantitatively measures the release of adenylate kinase (AK) from the membranes of damaged cells. […] The enzyme actively phosphorylates ADP, and the resultant ATP is then measured using the bioluminescent firefly luciferase reaction with the ToxiLight reagent. […]"}, "[5]": {"system": "HepG2 human hepatoma cells", "assay": "Hepatotoxicity assay: cell viability (PrestoBlue) and cell membrane damage (ToxiLight)", "format": "cell-based", "conditions": "24 h treatment; for cytotoxic effect in HepG2 cells: concentrations up to 50 μM", "procedure": "as §1, §2, §3"}, "in vitro": {"assay": "in vitro", "conditions": "human; for remaining at 2 h, 50 μM: % remaining (parent compound)", "procedure": "Given that our goal was to obtain metabolically stable scaffolds, we selected 9 and 23 as representatives of each series for metabolic stability studies using human liver microsomes (HLMs). In parallel, we interrogated the quality of 1H-benzo[d]imidazole derivatives by confronting them head-to-head with the comparator drug alpidem.\nThe in vitro evaluation of the metabolic stability of the selected compound was performed using human liver microsomes (HLMs) (Sigma-Aldrich, St. Louis, MO, USA) as described previously.[25] The reaction mixture contained 50 μM of tested molecules HLMs (1 mg/mL) in 10 mM tris–HCl buffer. Following 5 min of preincubation, 50 μL of the NADPH Regeneration System (Promega, Madison, WI, USA) was added to induce the reaction. Next, the resulting reaction mixture was incubated at 37 °C for 120 min. The reaction was quenched with the addition of 200 μL of cold extra pure methanol and then centrifuged at 14,000 rpm for 15 min. The resulting supernatant was analyzed using an LC/MS Waters ACQUITY TQD system (Waters, Milford, USA)."}}, "data": [{"smiles": "Cc1ccc2nc(-c3ccc(F)cc3)n(CC(=O)N3CCCC3)c2c1", "note": "[Compound 9, 2-(2-(4-Fluorophenyl)-6-methyl-1H-benzo[d]imidazole-1-yl)-1-(pyrrolidin-1-yl)ethan-1-one]", "values": [{"measurement": "% of 10 μM GABA response", "setting": "[1]", "result": "172 ± 12,5%"}, {"measurement": "pKi GABA-A", "setting": "[2]", "result": 5.5}, {"measurement": "solubility at 24 h", "setting": "[3]", "result": "50 ± 0.54", "unit": "µg/mL"}, {"measurement": "mitochondrial membrane potential (MMP) of HepG2 cells", "setting": "[4]", "result": "did not observe mitochondrial membrane potential (MMP) attenuation"}, {"measurement": "cytotoxic effect in HepG2 cells", "setting": "[5]", "result": "did not induce any significant cytotoxic effect"}, {"measurement": "% remaining (parent compound)", "setting": "in vitro; microsomes, 2 h, 50 μM", "result": 90.12, "unit": "%"}, {"measurement": "remaining at 2 h, 50 μM", "setting": "in vitro; microsomes", "result": 90, "unit": "%"}]}, {"smiles": "NC(=O)c1cccc(NC(=O)Cn2c(-c3ccc(F)cc3)nc3ccccc32)c1", "note": "[Compound 23, 3-(2-(2-(4-Fluorophenyl)-1H-benzo[d]imidazole-1-yl)acetamido)benzamide]", "values": [{"measurement": "% of 10 μM GABA response", "setting": "[1]", "result": "132 ± 13,2%"}, {"measurement": "pKi GABA-A", "setting": "[2]", "result": 6.05}, {"measurement": "solubility at 24 h", "setting": "[3]", "result": "74 ± 0.81", "unit": "µg/mL"}, {"measurement": "mitochondrial membrane potential (MMP) of HepG2 cells", "setting": "[4]", "result": "did not observe mitochondrial membrane potential (MMP) attenuation"}, {"measurement": "cytotoxic effect in HepG2 cells", "setting": "[5]", "result": "did not induce any significant cytotoxic effect"}, {"measurement": "formation of hydroxylated metabolite (M1)", "setting": "in vitro; 120 min, 50 μM", "result": 10.87, "unit": "%"}, {"measurement": "remaining at 2 h, 50 μM", "setting": "in vitro; microsomes", "result": 89.1, "unit": "%"}]}, {"smiles": "CCCN(CCC)C(=O)Cc1c(-c2ccc(Cl)cc2)nc2ccc(Cl)cn12", "note": "[alpidem, reference compound]", "values": [{"measurement": "mitochondrial membrane potential (MMP) of HepG2 cells", "setting": "[4]", "result": "induced mitochondrial dysfunction"}, {"measurement": "hepatotoxicity in HepG2 cells", "setting": "[5]; at 100 and 50 μM", "result": "noticeable hepatotoxicity"}, {"measurement": "remaining at 2 h, 50 μM", "setting": "in vitro; microsomes", "result": 38.6, "unit": "%"}]}]}
